Test results: patent publication US20100279997A1, “ANALGESIC THAT BINDS FILAMIN A” (priority 2009, published 2010)

Legend:
μ opiate receptor (MOR) = biological target: T1, μ opiate receptor (MOR) (Rattus norvegicus, UniProt P33535); test: MOR agonist activity, [35S]GTPγS binding assay using striatal membranes; format: biochemical; details: for [35S]GTPγS binding to Gαo, FLNA-binding compound as agonist 0.1 μM: 0.1 μM compound; for [35S]GTPγS binding to Gαo, FLNA-binding compound as agonist 0.1 μM / [35S]GTPγS binding to Gαo, FLNA-binding compound as agonist 1 μM: striatal membranes; for [35S]GTPγS binding to Gαo, FLNA-binding compound as agonist 1 μM + BFNA: 1 μM compound + 1 μM β-funaltrexamine; for [35S]GTPγS binding to Gαo, FLNA-binding compound as agonist 1 μM: 1 μM compound; for % DAMGO + BFNA: relative to DAMGO + BFNA; for % DAMGO (0.1 μM) / % DAMGO (1 μM): relative to DAMGO
T1 construct: from tissue; host or cells: striatal tissue (membrane preparation)
T1 sequence (P33535 whole entry): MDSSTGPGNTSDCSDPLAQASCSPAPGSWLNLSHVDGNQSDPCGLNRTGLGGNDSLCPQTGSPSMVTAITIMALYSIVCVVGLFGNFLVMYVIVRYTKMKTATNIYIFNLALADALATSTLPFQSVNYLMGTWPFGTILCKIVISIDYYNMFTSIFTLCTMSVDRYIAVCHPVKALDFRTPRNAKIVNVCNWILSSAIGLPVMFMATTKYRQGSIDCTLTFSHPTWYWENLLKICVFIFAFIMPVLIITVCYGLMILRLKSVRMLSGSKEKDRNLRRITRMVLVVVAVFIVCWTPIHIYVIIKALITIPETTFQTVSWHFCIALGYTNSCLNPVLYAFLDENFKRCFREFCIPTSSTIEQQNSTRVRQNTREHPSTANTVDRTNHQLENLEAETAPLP
Procedure: To assess the μ opiate receptor (MOR) agonist activity of positive compounds from the FLNA screening, compounds were tested in a [^35S]GTPγS binding assay using striatal membranes.
Striatal tissue was homogenized in 10 volumes of ice cold 25 mM HEPES buffer, pH 7.4, which contained 1 mM EGTA, 100 mM sucrose, 50 μg/ml leupeptin, 0.04 mM PMSF, 2 μg/ml soybean trypsin inhibitor and 0.2% 2-mercaptoethanol. The homogenates were centrifuged at 800×g for 5 minutes and the supernatants were centrifuged at 49,000×g for 20 minutes. The resulting pellets were suspended in 10 volume of reaction buffer, which contained 25 mM HEPES, pH 7.5, 100 mM NaCl, 50 μg/ml leupeptin, 2 μg/ml soybean trypsin inhibitor, 0.04 mM PMSF and 0.02% […].
The resultant striatal membrane preparation (200 μg) was admixed and maintained (incubated) at 30° C. for 5 minutes in reaction buffer as above that additionally contained 1 mM MgCl2 and 0.5 nM [^35S]GTPγS (0.1 μCi/assay, PerkinElmer Life and Analytical Sciences) in a total volume of 250 μl and continued for 5 minutes in the absence or presence of 0.1-10 μM of an assayed compound of interest. The reaction was terminated by dilution with 750 μl of ice-cold reaction buffer that contained 20 mM MgCl2 and 1 mM EGTA and immediate centrifugation at 16,000×g for 5 minutes.
The resulting pellet was solubilized by sonicating for 10 seconds in 0.5 ml of immunoprecipitation buffer containing 0.5% digitonin, 0.2% sodium cholate and 0.5% NP-40. Normal rabbit serum (1 μl) was added to 1 ml of lysate and incubated at 25° C. for 30 minutes. Nonspecific immune complexes were removed by incubation with 25 μl of protein A/G-conjugated agarose beads at 25° C. for 30 minutes followed by centrifugation at 5,000×g at 4° C. for 5 minutes. The supernatant was divided and separately incubated at 25° C. for 30 minutes with antibodies raised against Gao proteins (1:1,000 dilutions).
The immunocomplexes so formed were collected by incubation at 25° C. for 30 minutes with 40 μl of agarose-conjugated protein A/G beads and centrifugation at 5,000×g at 4° C. for 5 minutes. The pellet was washed and suspended in buffer containing 50 mM Tris-HCl, pH 8.0, and 1% NP-40. The radioactivity in the suspension was determined by liquid scintillation spectrometry. […] DAMGO (H-Tyr-D-Ala-Gly-N-MePhe-Gly-OH; 1 or 10 μM) was used as a positive control.

[1] = biological target: Bn-VAKGL pentapeptide of filamin A (FLNA) (Homo sapiens, UniProt P21333); test: FITC-NLX-based FLNA screening assay (FLNA peptide binding assay); details: for inhibition at 0.01 µM: read-out: Percent inhibition of FITC-NLX binding, 0.01 μM; for inhibition at 0.1 µM: read-out: Percent inhibition of FITC-NLX binding, 0.1 μM; for inhibition at 1 µM: read-out: Percent inhibition of FITC-NLX binding, 1 μM
Procedure: The final assay volume is 100 μl.
Compounds are tested in triplicate or quadruplicate.

Row | Compound | [35S]GTPγS binding to Gαo, FLNA-binding compound as agonist 0.1 μM (μ opiate receptor (MOR)) | [35S]GTPγS binding to Gαo, FLNA-binding compound as agonist 1 μM + BFNA (μ opiate receptor (MOR)) | [35S]GTPγS binding to Gαo, FLNA-binding compound as agonist 1 μM (μ opiate receptor (MOR)) | % DAMGO + BFNA (μ opiate receptor (MOR)) | % DAMGO (0.1 μM) (μ opiate receptor (MOR)) | % DAMGO (1 μM) (μ opiate receptor (MOR)) | inhibition at 0.01 µM [1] | inhibition at 0.1 µM [1] | inhibition at 1 µM [1]
1 | OC(COc1ccc(Br)c(F)c1)CN1CCN(CCN2CCOCC2)CC1 (stereo not drawn) [Compound A0063] | 122.8% | 310% | 245.8% | 77.7% | 78.7% | 106.6% | 21.2% | 31% | 38.8%
2 | CC1CCC(C(C)C)C(OCC(O)CN2CCC(=O)C(C)C2)C1 (stereo not drawn) [Compound A0056] | 115.6% | 17.4% | 129.6% | – | – | – | – | – | –
3 | CC1CCC(C(C)C)C(OCC(O)CN2CCCC2)C1 (stereo not drawn) [Compound A0001] | 94.3% | 22.2% | 181.7% | – | – | – | – | – | –
4 | CC1CN(CC(O)COc2ccccc2)CC(C)O1 (stereo not drawn) [Compound A0025] | 58.6% | 52.2% | 138.7% | – | – | – | – | – | –
5 | Cc1ccc(C(C)C)c(OCC(O)CN2CC(C)OC(C)C2)c1 (stereo not drawn) [Compound A0028] | 143.6% | 116.7% | 187.7% | – | – | – | – | – | –
6 | COc1ccc(N2CCN(CC(O)COC3CC(C)CCC3C(C)C)CC2)c(OC)c1 (stereo not drawn) [Compound A0012] | 149.3% | 122.4% | 185.7% | – | – | – | – | – | –
7 | CC1CN(CC(O)COc2ccc(Br)c(Cl)c2)CC(C)O1 (stereo not drawn) [Compound A0045] | 143.9% | 99.2% | 274.2% | – | – | – | – | – | –
8 | CC1CCC(C(C)C)C(OCC(O)CN2CCCCC2C)C1 (stereo not drawn) [Compound A0007] | 102.0% | 40.4% | 221.9% | – | – | – | – | – | –
9 | CC1CCC(C(C)C)C(OCC(O)CN2CCC(=O)CC2)C1 (stereo not drawn) [Compound A0060] | 99.7% | 14.3% | 158.2% | – | – | – | – | – | –
10 | CC1CCC(C(C)C)C(OCC(O)CN2CCCC2=O)C1 (stereo not drawn) [Compound A0035] | 120.6% | 88.6% | 158.8% | – | – | – | – | – | –
11 | CC1CCC(C(C)C)C(OCC(O)CN2CCN(CCCN3CCOCC3)CC2)C1 (stereo not drawn) [Compound A0026] | 140.7% | 120.8% | 179.8% | – | – | – | – | – | –
12 | COc1ccc(OCC(O)CN2CCc3ccccc32)cc1 (stereo not drawn) [Compound A0069] | – | – | – | – | – | – | 32% | 40.4% | 46.1%
13 | OC(COc1cccc(C(F)(F)F)c1)CN1CCc2ccccc2C1 (stereo not drawn) [Compound A0054] | 74.9% | 114.1% | 159.2% | – | – | – | – | – | –
14 | CC1CCC(C(C)C)C(OCC(O)CN2CCCc3ccccc32)C1 (stereo not drawn) [Compound A0068] | 73.9% | 98.1% | 110.4% | – | – | – | – | – | –
15 | CC1CCC(C(C)C)C(OCC(O)CN2CCN(C)CC2)C1 (stereo not drawn) [Compound A0009] | 70.2% | 93.9% | 126.4% | – | – | – | – | – | –
16 | CC1CN(CC(O)COc2cccc(C(F)(F)F)c2)CC(C)O1 (stereo not drawn) [Compound A0051] | 290.4% | 211.6% | 386.6% | – | – | – | – | – | –
17 | OC(COc1ccc(Br)c(F)c1)CN1CCSCC1 (stereo not drawn) [Compound A0059] | 99.2% | 85.7% | 129.9% | – | – | – | – | – | –
18 | CC1CCC(C(C)C)C(OCC(O)CN2CCSC2)C1 (stereo not drawn) [Compound A0002] | 155.6% | 6.5% | 199.4% | – | – | – | – | – | –
19 | COc1ccc(OCC(O)Cn2ccc3ccccc32)cc1 (stereo not drawn) [Compound A0077] | 300.1% | 103.5% | 334.7% | 470.5% | 170.5% | 132.3% | – | – | –
20 | COc1c2c(cc3c1OCO3)CCN(CC(O)COC1CC(C)CCC1C(C)C)C2 (stereo not drawn) [Compound A0061] | 110.3% | 10.7% | 197.1% | – | – | – | – | – | –
21 | CC1CCC(C(C)C)C(OCC(O)CN2CCOCC2)C1 (stereo not drawn) [Compound A0004] | 97.4% | 86.0% | 144.2% | – | – | – | – | – | –
22 | OC(COc1ccc(Br)c(F)c1)CN1CCCCC1 (stereo not drawn) [Compound A0058] | 70.7% | 59.9% | 244.3% | – | – | – | – | – | –
23 | CC1CCC(C(C)C)C(OCC(O)CN2CCN(CCc3ccccc3)CC2)C1 (stereo not drawn) [Compound A0020] | 168.6% | 67.4% | 217.4% | – | – | – | – | – | –
24 | CC1CCC(C(C)C)C(OCC(O)CN2CCSCC2)C1 (stereo not drawn) [Compound A0003] | 176.8% | 17.1% | 276.0% | – | – | – | – | – | –
25 | CC1CCC(C(C)C)C(OCC(O)CN2CCCCC2=O)C1 (stereo not drawn) [Compound A0036] | 144.1% | 63.2% | 167.5% | – | – | – | – | – | –
26 | CC1CCC(C(C)C)C(OCC(O)CN(C(C)C)C(C)C)C1 (stereo not drawn) [Compound A0037] | 177.9% | 104.6% | 236.2% | 141.5% | 90.7% | 85.6% | – | – | –
